# Data reported in patent publication US8222414B2, “Indole compounds as an inhibitor of cellular necrosis” (LG Life Sciences Ltd., priority 2007, dated 2012).
# Test system: primary hepatocytes isolated from rats
# Assay: Cell protective effects against doxorubicin in hepatocytes (WST-1 cell viability)
# Type: cell-based
# Conditions: Hepatocyte; primary rat hepatocytes pretreated with compound for 30 min, then doxorubicin; viability by WST-1 after 24-48 h
# Description: Various endogenous/exogenous attacks on the cells trigger the mechanisms of cell death which is broadly classified into two types, i.e. apoptosis or necrosis. Using these cell death mechanisms, in the present experimental example, primacy hepatocytes isolated from rats were treated with drugs which were clinically shown to result in serious side-effects of hepatocyte toxicity or various chemicals which derive cell death, and the compounds synthesized in the Examples were estimated for their hepatocyte protective effects, after 24-48 h. The substances used to derive hepatocyte death include CCl4, ActD, H2O2, doxorubicin, anti-Fas Ab/Actinomycin D, acetaminophen, EtOH, CdCl2, palmitate, stearate, cyclophosphamide, terfenadine, diclofenac, simvastatin, and adefovir. Primary hepatocytes were isolated using the method of Seglen P O (Experimental Cell Research 74 (1972) pp 450-454). Briefly, hepatocytes were isolated according to the two-step collagenase perfusion method, and dead cells were removed by low speed (500 rpm) centrifugation for 10 min using percoll gradient (Kreamer B L etc, In Vitro Cellular & Developmental Biology 22 (1986) pp 201-211). During this step, the viability of cells was maintained 90% or above. The cells were suspended in HepatoZYME media (Gibco BRL), and the number of cells was counted. 1.5×10^4 cells in 100 μl were placed into the collagen-coated 96-well plate (BD biocoat), and adhered on the bottom for 3-4 h.
# In order to assess the hepatocyte protective effect, above adhered cells were pretreated with the Example compounds for 30 min. At this time, the concentration of the Example compounds were serially diluted by 2-fold or 3-fold over 5 steps starting from 30 uM, 10 uM or 1 uM depending on the experiments, and the final concentration of DMSO was adjusted to 0.2%. 30 min after the treatment by compounds, cells were treated by the substances deriving hepatocyte death or hepatotoxic drugs at the concentrations indicated in Table 1. After 24-48 h, the viability of cells was determined to estimate the hepatocyte protective effects. The viability of cells was determined using WST-1 (MK-400, […]) method by the absorbance at 440 nm. Hepatocyte protective effects of the Example compounds were represented by “EC50” which was calculated from measured values. “EC50” herein means the concentration of the compound at which 50% of maximum protective effect is observed in the experiment.
row,SMILES,EC50 [nM]
1,"NC[C@@H]1CSC(c2cc3cccc(NC4CCCC4)c3[nH]2)=N1 [Example 173, [2-((R)-4-aminomethyl-4,5-dihydro-thiazol-2-yl)-1H-indol-7-yl]-cyclopentyl-amine]",1980
2,"N[C@H]1CCN(CC[C@@H]2CSC(c3cc4cc(Cl)cc(NC5CCCC5)c4[nH]3)=N2)C1 [Example 176, {2-[(R)-4-((S)-3-amino-pyrrolidin-1-ylethyl)-4,5-dihydro-thiazol-2-yl]-5-chloro-1H-indol-7-yl}-cyclopentyl-amine]",> 1000
3,"CN(C)c1cccc(CC[C@H]2CSC(c3cc4cc(Cl)cc(NC5CCCC5)c4[nH]3)=N2)c1 [Example 177, (5-Chloro-2-{(S)-4-[2-(3-dimethylamino-phenyl)-ethyl]-4,5-dihydro-thiazol-2-yl}-1H-indol-7-yl)-cyclopentyl-amine]",> 1000
4,"CC(=O)N1CCN(CC[C@H]2CSC(c3cc4cc(Cl)cc(NC5CCCC5)c4[nH]3)=N2)CC1 [Example 178, 1-(4-{2-[(S)-2-(7-cyclopentylamino-5-chloro-1H-indol-2-yl)-4,5-dihydro-thiazol-4-yl]-ethyl}-piperazin-1-yl)-ethanone]",230
5,"O=C1CN(CC[C@H]2CSC(c3cc4cccc(NC5CCOCC5)c4[nH]3)=N2)CCN1 [Example 182, (2-{(S)-4-[(2-oxopiperazin-4-yl)-ethyl]-4,5-dihydro-thiazol-2-yl}-1H-indol-7-yl)-(tetrahydro-pyran-4-yl)-amine]",375
6,"Cc1cc(NC2CCOCC2)c2[nH]c(C3=N[C@@H](CCN4CCOCC4)CS3)cc2c1 [Example 184, (5-Methyl-2-{(S)-4-[(morpholin-4-yl)-ethyl]-4,5-dihydro-thiazol-2-yl}-1H-indol-7-yl)-(tetrahydro-pyran-4-yl)-amine]",180
7,"Clc1cc(NC2CCOCC2)c2[nH]c(C3=N[C@H](CCN4CCNCC4)CS3)cc2c1 [Example 193, (5-Chloro-2-{(R)-4-[(piperazin-1-yl)-ethyl]-4,5-dihydro-thiazol-2-yl}-1H-indol-7-yl)-(tetrahydro-pyran-4-yl)-amine]",650
8,"Fc1cc(NC2CCCC2)c2[nH]c(C3=N[C@H](CCN4CCOCC4)CS3)cc2c1 [Example 201, (5-Fluoro-2-{(R)-4-[(morpholin-4-yl)-ethyl]-4,5-dihydro-thiazol-2-yl}-1H-indol-7-yl)-cyclopentyl-amine]",330
9,"O=C1CCCN1CC[C@@H]1CSC(c2cc3cc(F)cc(NC4CCCC4)c3[nH]2)=N1 [Example 205, (5-Fluoro-2-{(R)-4-[(2-oxopyrrolidin-1-yl)-ethyl]-4,5-dihydro-thiazol-2-yl}-1H-indol-7-yl)-cyclopentyl-amine]",340
10,"Clc1cc(NC2CCCC2)c2[nH]c(C3=N[C@H](CCCN4CCOCC4)CS3)cc2c1 [Example 222, (5-Chloro-2-{(R)-4-[(morpholin-4-yl)-propyl]-4,5-dihydro-thiazol-2-yl}-1H-indol-7-yl)-cyclopentyl-amine]",180
11,"CC(C)CN(CC(C)C)c1cc(Oc2ccccc2)cc2cc(C3=N[C@@H](CCN4CCCC4)CS3)[nH]c12 [Example 228, (5-Phenoxy-2-{(S)-4-[(pyrrolidin-1-yl)-ethyl]-4,5-dihydro-thiazol-2-yl}-1H-indol-7-yl)-diisobutyl-amine]",130
12,"c1ccc(Oc2cc(NC3CCCC3)c3[nH]c(C4=N[C@@H](CCN5CCNCC5)CS4)cc3c2)cc1 [Example 230, (5-Phenoxy-2-{(S)-4-[(piperazin-1-yl)-ethyl]-4,5-dihydro-thiazol-2-yl}-1H-indol-7-yl)-cyclopentyl-amine]",> 320
13,"FCc1nnc2n1CCN(CC[C@H]1CSC(c3cc4cc(Oc5ccccc5)cc(NC5CCCC5)c4[nH]3)=N1)C2 [Example 232, Cyclopentyl-(5-phenoxy-2-{(S)-4-[2-(3-fluoromethyl-5,6-dihydro-8H-[1,2,4]triazolo[4,3-a]pyrazin-7-yl)-ethyl]-4,5-dihydro-thiazol-2-yl}-1H-indol-7-yl)-amine]",240
14,"N[C@H]1CCN(CC[C@H]2CSC(c3cc4cc(Oc5ccccc5)cc(NC5CCCC5)c4[nH]3)=N2)C1 [Example 238, (5-Phenoxy-2-{(S)-4-[(3S)-3-(amino)pyrrolidin-1-yl-ethyl]-4,5-dihydro-thiazol-2-yl}-1H-indol-7-yl)-cyclopentyl-amine]",330
15,"Cc1cc(NCC2CCOCC2)c2[nH]c(C3=N[C@@H](CCN4CCCC4C(N)=O)CS3)cc2c1 (stereo partly drawn) [Example 240, (5-Methyl-2-{(S)-4-[2-(aminocarbonyl)pyrrolidin-1-yl-ethyl]-4,5-dihydro-thiazol-2-yl}-1H-indol-7-yl)-(tetrahydropyran-4-yl)methyl-amine]",280
16,"CC1SC(c2cc3cccc(NCC4CCOCC4)c3[nH]2)=N[C@H]1C(O)C1CCCN1 (stereo partly drawn) [Example 241, (5-Methyl-[(S)-2-(7-(tetrahydropyran-4-yl)methylamino-1H-indol-2-yl)-4,5-dihydro-thiazol-4-yl])-pyrrolidin-2-yl-methanol]",210
17,"CCOP(=O)(CC[C@H]1CSC(c2cc3cc(C)cc(NCC4CCOCC4)c3[nH]2)=N1)OCC [Example 244, (5-Methyl-2-{(S)-4-[2-diethoxyphosphoryl-ethyl]-4,5-dihydro-thiazol-2-yl}-1H-indol-7-yl)-(tetrahydropyran-4-yl)methyl-amine]",195
18,"c1ccc(Oc2cc(NC3CCCC3)c3[nH]c(C4=N[C@H](CCN5CCCC5)CS4)cc3c2)cc1 [Example 246, (5-Phenoxy-2-{(R)-4-[pyrrolidin-1-yl-ethyl]-4,5-dihydro-thiazol-2-yl}-1H-indol-7-yl)-cyclopentyl-amine]",350
19,"c1ccc(Oc2cc(NCC3CCOCC3)c3[nH]c(C4=N[C@@H](CCN5CCOCC5)CS4)cc3c2)cc1 [Example 247, (5-Phenoxy-2-{(S)-4-[morpholin-4-yl-ethyl]-4,5-dihydro-thiazol-2-yl}-1H-indol-7-yl)-(tetrahydropyran-4-yl)methyl-amine]",860
20,"c1ccc(Oc2cc(NC3CCCC3)c3[nH]c(C4=N[C@@H](CCN5CCCC5)CS4)cc3c2)cc1 [Example 249, (5-Phenoxy-2-{(S)-4-[pyrrolidin-1-yl-ethyl]-4,5-dihydro-thiazol-2-yl}-1H-indol-7-yl)-cyclopentyl-amine]",110
21,"Cc1cc(NC2CCC(F)(F)CC2)c2[nH]c(C3=N[C@@H](CCN4CCNC(=O)C4)CS3)cc2c1 [Example 250, (5-Methyl-2-{(S)-4-[2-oxopiperazin-4-yl-ethyl]-4,5-dihydro-thiazol-2-yl}-1H-indol-7-yl)-4,4-difluorocyclohexyl-amine]",90
22,"Cc1cc(NC2CCC(F)(F)CC2)c2[nH]c(C3=N[C@@H](CCN4CCOCC4)CS3)cc2c1 [Example 251, (5-Methyl-2-{(S)-4-[morpholin-4-yl-ethyl]-4,5-dihydro-thiazol-2-yl}-1H-indol-7-yl)-4,4-difluorocyclohexyl-amine]",300

# Same assay, conditions: primary rat hepatocytes pretreated with compound for 30 min, then doxorubicin; viability by WST-1 after 24-48 h
row,SMILES,EC50 [nM]
1,CS(=O)(=O)CC[C@@H]1CSC(c2cc3cccc(NC4CCOCC4)c3[nH]2)=N1 [Example 218],260
2,O=C(CO)N1CCN(CC[C@H]2CSC(c3cc4cc(Oc5ccccc5)cc(NC5CCCC5)c4[nH]3)=N2)CC1 [Example 229],250
3,"CC(C)(C)OC(=O)N1CCN(CC[C@H]2CSC(c3cc4cc(Oc5ccccc5)cc(NC5CCCC5)c4[nH]3)=N2)CC1 [Example 231, t-Butyl-(4-{2-[(S)-2-(5-phenoxy-7-cyclopentylamino)-1H-indol-2-yl)-4,5-dihydro-thiazol-4-yl]-ethyl}-piperazine-1-carboxylate]",200
4,O=C1CN(CC[C@H]2CSC(c3cc4cc(Oc5ccccc5)cc(NC5CCCC5)c4[nH]3)=N2)CCN1 [Example 233],270
5,O=C(C1CCCO1)N1CCN(CC[C@H]2CSC(c3cc4cc(Oc5ccccc5)cc(NC5CCCC5)c4[nH]3)=N2)CC1 (stereo partly drawn) [Example 234],90
6,"c1ccc(Oc2cc(NC3CCCC3)c3[nH]c(C4=N[C@@H](CCN5CCN(c6ccccn6)CC5)CS4)cc3c2)cc1 [Example 235, (5-Phenoxy-2-{(S)-4-[(pyridin-2-yl)piperazine-ethyl]-4,5-dihydro-thiazol-2-yl}-1H-indol-7-yl)-cyclopentyl-amine]",> 540
7,"Fc1ccccc1N1CCN(CC[C@H]2CSC(c3cc4cc(Oc5ccccc5)cc(NC5CCCC5)c4[nH]3)=N2)CC1 [Example 236, (5-Phenoxy-2-{(S)-4-[(2-fluorophenyl)piperazine-ethyl]-4,5-dihydro-thiazol-2-yl}-1H-indol-7-yl)-cyclopentyl-amine]",160
8,CC(=O)N1CCN(CC[C@H]2CSC(c3cc4cc(Oc5ccccc5)cc(NC5CCCC5)c4[nH]3)=N2)CC1 [Example 239],830
